# Measurements reported in patent US6573296B2, “Therapeutic quassinoid preparations with antineoplastic, antiviral, and herbistatic activity” (priority 1997, dated 2003).
# Legend:
# [1] = system: Crandall Feline Kidney cells infected with Feline Immunodeficiency Virus (FIV); experiment: time for complete cell killing, FIV-infected cells
# [2] = system: Arabadopsis (var. Columbia); experiment: growth of plants in soil after foliar application; format: in vivo
# Protocol: To evaluate the growth phenotype of a set of plants, a 1 mg concentration of 100 Mm (solution QD-2). This solution was diluted serially with water with or without Triton X-100, ethanol or DMSO and used directly for measurement of effects on seed germination or applied using a microliter syringe to foliage to evaluate growth effects on plants.
# When applied to Arabadopsis (var. Columbia) growing in soil in 4 inch plastic pots, the glaucarubolone preparation was herbicidal at dilutions of 1:100 and 1:1000 (10 μ1/half pot). Plants were treated after 10 days of germination. At a dilution of 1:10,000, the plants were not killed but growth was completely stopped for about 3 weeks. Growth resumed about 30 days after treatment. […] The calculated application rate was 2.5×10^−3 oz/A.
# In an experiment with Arabadopsis where the quassinoid preparation was administered in ethanol, herbicidal activity was observed down to a dilution of 1:10^4 (2.5×10^−5 oz/A) and a dilution of 1:10^5 (2.5×10^−6 oz/A) appeared to stop growth for at least 30 days. All plants were watered from the bottom to reduce surface spreading of the material. The inhibited phenotype includes an impaired ability of the plants to grow, i.e., cell elongation/cell expansion is prevented or reduced by at least 50% over several weeks.
# [3] = system: Crandall Feline Kidney cells (CFK cells), uninfected; experiment: time for complete cell killing, uninfected cells
# [4] = system: porcine pseudorabies virus; details: rabbit kidney cells
# H8 = experiment: soft agar disk diffusion zone of inhibition assay; format: cell-based, human; details: 25 ug/disk
# Excerpt: (§1) The following human tumors were used: Human adenosquamous lung tumor H-125 (7) and colon tumors H8, HCT-116, and CX-1 were used for in vitro testing only. Each human cell line was maintained in culture until plating was done. HCT-116, H8, and CX-1 were maintained in McCoy's media and heat inactivated fetal bovine serum (11% FBS). It was passaged (1:5 dilution) twice week following enzymatic dissociation using a trypsin/PBS-EDTA mixture. H-125 was maintained in CMRL/Fischer media (1:1) with 11% FBS. It was mechanically dissociated and passaged (3:10 dilution) weekly. For the plating assay, all cells were mechanically dispersed and diluted in the CMRL/Fischer. media mixture.
# CX-1 = experiment: soft agar disk diffusion zone of inhibition assay; format: cell-based, human; details: 25 ug/disk
# Excerpt: as §1
# M17/Adr = details: multidrug resistant, p-glycoprotein expressing mammary tumor versus leukemia
# C38 = experiment: soft agar disk diffusion zone of inhibition assay; format: cell-based, mice; details: 25 ug/disk
# NADH oxidase = NADH oxidase activity of CFK microsomes from uninfected cells; details: read-out: ED50, inhibition of NADH oxidase activity; Plasma membrane-free CFK microsomes (Golgi-enriched) from uninfected cells
# human rhinovirus-14 = experiment: cytopathic effect of rhinovirus in HeLa cells; format: cell-based; details: HeLa cells (Wisconsin strain), visually observed
# Protocol: C. HeLa cells (Wisconsin strain, Berlin, Germany) were contacted with human rhinovirus-14. Infected cells (Wisconsin strain) were visually observed. […] HeLa cells were not killed by any compounds used. Cells of other HeLa lines (eg. ATCC CCL2) were killed. Glaucarubolone, simalikalactone D and chaparrinone were tested on cell killing and virus production by primary blood monocytes. All three drugs were tested at five concentrations (0, 10^−9, 10^−8, 10^−7, and 10^−6 M). Drugs were given at different times pre-infection, given at the time of infection, or were administered at different times post-infection.
# L1210 = experiment: soft agar disk diffusion zone of inhibition assay; format: cell-based, mice; details: 25 ug/disk
structure (smiles),measurement,setting,value
"CC1=CC(=O)C(O)C2(C)C1CC1OC(=O)C(O)C3C(C)C(O)C4(O)OCC13C42 (centres unmarked) [Glaucarubolone, glaucarubolone]","Time for complete cell killing (>98%), FIV-Infected",[1]; 3 × 10^−4 M,>168 h
same,"Time for complete cell killing (>98%), FIV-Infected",[1]; 3 × 10^−5 M,>168 h
same,"Time for complete cell killing (>98%), FIV-Infected",[1]; 3 × 10^−6 M,>168 h
same,"Time for complete cell killing (>98%), FIV-Infected",[1]; 3 × 10^−7 M,>168 h
same,"Time for complete cell killing (>98%), FIV-Infected",[1]; 3 × 10^−8 M,>168 h
same,"Time for complete cell killing (>98%), FIV-Infected",[1]; 3 × 10^−9 M,>168 h
same,killing of FIV-infected compared to non-infected CFK cells,"[1]; FIGS. 6 and 7, Table 3",differential killing of infected cells
same,plants which survived and did not grow for >50 days,[2]; dilution of 1:1000 (2.5×10^−3 oz/A),Approximately 10%
same,time after treatment at which growth resumed,"[2]; dilution of 1:10,000",about 30 days
same,time for which growth was completely stopped,"[2]; dilution of 1:10,000 (2.5×10^−4 oz/A), plants not killed",about 3 weeks
same,"effect on plants, in words","[2]; dilutions of 1:100 and 1:1000 (10 μl/half pot), treated after 10 days of germination",herbicidal
same,"Time for complete cell killing (>98%), Uninfected",[3]; 3 × 10^−4 M,120 h
same,"Time for complete cell killing (>98%), Uninfected",[3]; 3 × 10^−5 M,120 h
same,"Time for complete cell killing (>98%), Uninfected",[3]; 3 × 10^−6 M,144 h
same,"Time for complete cell killing (>98%), Uninfected",[3]; 3 × 10^−7 M,192 h
same,"Time for complete cell killing (>98%), Uninfected",[3]; 3 × 10^−8 M,>192 h
same,"Time for complete cell killing (>98%), Uninfected",[3]; 3 × 10^−9 M,>192 h
same,cytopathic effect on non-infected treated control cells,[4]; non-infected,no cytopathic affect
same,cytopathic effect of porcine pseudorabies virus,[4]; visually monitored,inhibited cytopathic effect
same,zone of inhibition H8,H8,650 ZONE UNITS
same,zone of inhibition CX-1,CX-1,100 ZONE UNITS
same,differential / selectivity for M17/Adr (Mam 17/Adr),M17/Adr,demonstrated selectivity
same,zone of inhibition C38,C38,900 ZONE UNITS
same,EC50,NADH oxidase,> 10 µM
same,cytopathic effect of human rhinovirus-14,human rhinovirus-14,Cytopathic effect was delayed
same,zone of inhibition L1210,L1210,25:100 ZONE UNITS
